Assay results as given in US11446253B2, “Ionic liquids for internal delivery” (priority 2017, dated 2022).
Values after ≈ are worked out from the molar mass of the structure shown. Values joined by “and” are separate entries in the source; they are usually repeats but may differ in a detail not shown here. Equal entries are not always repeated. “Also recorded” adds a separate entry of the source. Where two headings read alike, the source gives them in different places.

Experiments:
[1] = Solubility of hydrophobic drugs in CAGE; conditions: organic solvent or mixture
[2] = system: 4T1 cells; assay: 4T1 cell viability, calcein-AM assay; assay type: cell-based; conditions: drug solubilized in CAGE (1:1) vs DMSO
Description: In vitro anticancer efficacy of drug-loaded liposomes was determined using calcein-AM cell viability assay (Life Technologies). 4T1 cells were seeded in a 96-well cell culture plate at a density of 11,000 cells per well or 1,000 cells per well in a total volume of 100 μL media and allowed to adhere overnight. […] After incubation with drug, media was aspirated and replaced with 1 μM calcein-AM in PBS for 30 minutes at room temperature. Fluorescence intensity of intracellularly hydrolyzed calcein-AM was measured using excitation and emission wavelengths of 490 nm and 520 nm. Fractional cell inhibition was calculated by subtracting fluorescence of live cells in experimental wells from those of untreated cells and normalizing against untreated cells.

[3] = system: rats; conditions: cited from earlier work
[4] = physchem; conditions: organic solvent or mixture
[5] = system: Caco-2 cells; assay: Tight junction integrity (TEER) in Caco-2 cells; assay type: cell-based, human
Description: […] Furthermore, TEER was measured at every time point when aliquots were withdrawn from the transwells and plotted as % change from initial value vs time.
TEER values were recorded for each insert. […] TEER was plotted as % change from initial value vs time.

[6] = system: non-diabetic male Wistar rats; assay: Blood glucose lowering after intrajejunal administration; assay type: in vivo, rat; conditions: intrajejunal controls (neat CAGE, 3 U/kg insulin-saline), 5 h
Description: Before the start of the study, the rats were anesthetized, abdominal hair clipped and the area prepped for surgery using 70% ethanol and betadine. An incision was made in the abdomen to expose the intestine. […] Each formulation was tested in 6 rats with the exception of saline which was tested in only 3 rats. Thereafter, intestinal section was placed back into the abdomen and the muscle and skin sutured. Blood glucose was determined using a commercial glucose meter in the beginning and at every 0.5 h till the end of study at 5 h. The animals remained anesthetized throughout the study, at the end of which they were euthanized and the intestinal section around the injection site was removed for further histological examination to determine toxicity, if any. […] The results were plotted as % change in blood glucose levels with respect to initial reading at t=0 vs time.
Before the start of the study, the rats were anesthetized, abdominal hair clipped, and the surgery area was prepped using 70% ethanol and betadine. An incision was made in the abdomen to expose the intestine. […] The time zero blood glucose was taken after the intestine was exposed i.e. immediately prior to the injections. Each formulation was tested in 6 rats with the exception of saline which was tested in only 3 rats. Thereafter, intestinal section was placed back into the abdomen and the muscle and skin sutured. Blood glucose was determined using a commercial glucose meter at the beginning and at every 0.5 h till the end of study at 5 h. Loss in body temperature in the animals during anesthesia was prevented by placing the animals on temperature controlled warming pads prior to surgery followed by additional towel cover after surgery. The animals remained anesthetized throughout the study and were euthanized after 5 h. At the end of study at 5 h, the intestinal section around the injection site was removed for further histological examination to determine toxicity, if any. […] The results were plotted as % change in blood glucose levels with respect to initial reading vs time. In addition, the saline group was considered as fasting control and graphs were plotted after subtracting blood glucose levels of the saline group.

[7] = system: non-diabetic male Wistar rats; assay: Blood glucose lowering after oral administration in enterically coated capsules; assay type: in vivo, rat; conditions: oral controls, 12 h
Description: (§1) For the oral efficacy study, adult non-diabetic male Wistar rats were fasted overnight but given free access to water. On the next day, the capsules were administered to the rats using an oral gavage followed by subcutaneous administration of 5 mg/kg metoclopramide HCl to promote gastric emptying. Blood glucose was thereafter measured using a commercial glucose meter and subsequently every hour till 12 h. Rats were fasted throughout the period of study. […] In addition, the efficacy of subcutaneously injected 2 U/kg insulin-saline was also evaluated. […] The results were plotted as percent change in blood glucose level vs time.
as §1, with “To determine the efficacy of insulin-CAGE administered through the oral route, elongated size 9 capsules were used. […] Following this, the capsules were enterically coated three times with 12.5% w/v Eudragit® L-100 dissolved in isopropanol. For” for “For”, “Next” for “On the next”, “was” for “was also”, “time. […] After 12 h of study, rats were euthanized, and small intestinal sections were collected for tissue histology.” for “time.”

[8] = system: Caco-2 monolayers
Description: For transport experiments in transwells, a 3-day rapid Caco-2 growth system was used. Cells were placed in Corning® basal seeding medium (BSM) supplemented with MITO serum+ extender and seeded at density of 400,000 cells/mL on Millicell® PCF inserts placed inside 24-well plates. 500 μL of cells containing medium was placed in apical side while 1000 μL of cell free BSM was put in the basolateral side as per manufacturer recommendation. After 24 h of incubation at 37° C., 5% CO2, the medium was replaced with same volume of enterocyte differentiation medium supplemented with MITO serum+ extender for another 2-4 days.
Before the start of the experiment, the medium in the transwells was replaced with DMEM devoid of phenol red, FBS and P/S in both the apical (200 μL) and basolateral side (600 μL) and the cells were incubated for 30 minutes. […] This was repeated at 1, 2, 3, 4 and 5 h. […] After the end of study at 5 h, fluorescence in the aliquots with LY and coumarin-6 concentrations were measured using a plate reader (BioTek Synergy NEO HTS™ microplate reader (Winooski, Vt., USA) at 485/530, 495/520 and 468/568 nm excitation/emission wavelengths, respectively. Calibration solutions for each test article were prepared and analyzed using fluorescence readings for LY and coumarin-6 which was used to plot of basolateral chamber concentration vs time plots.

[9] = system: Caco-2 monolayers; assay: FITC-insulin transport across Caco-2 monolayers; assay type: cell-based, human
Description: TEER was measured on a regular basis and when it reached above 200 ohms·cm^2, indicating sufficient tight junction integrity between cells, transport study was performed.
After the end of study at 5 h, the FITC-insulin concentration in the aliquots were measured using a plate reader (Tecan, Infinite M1000, Mannedorf, Switzerland) at 495/520 nm excitation/emission wavelengths and plotted as % FITC-insulin transport vs time. Furthermore, TEER was measured at every time point when aliquots were withdrawn from the transwells and plotted as % change from initial value vs time.
TEER was measured on a regular basis and when it reached above 200 ohms. cm2, indicating sufficient tight junction integrity between cells, transport study was performed.
After the end of study at 5 h, the FITC-insulin concentration in the aliquots were measured using a plate reader (Tecan, Infinite M1000, Mannedorf, Switzerland) at 495/520 nm excitation/emission wavelengths and plotted as % FITC-insulin transport vs time. Furthermore, TEER was measured at every time point when aliquots were withdrawn from the transwells and plotted as […].

[10] = system: Caco-2 cells; conditions: Caco-2, 12-48 h incubation
Description: Control wells were filled with media only. […] The plates were wrapped in foil and shaken for 20 min, then absorbance was read at 570 nm using a microplate reader (M220 Infinite Pro, Tecan Group Ltd, Morrisville, N.Y.). Absorbance readings were normalized using the non-treated cell viability values.

[11] = FITC labeled dextran, neat CAGE sample
Description: These experiments were done using skin as a model tissue. […] 50 ul of each sample was injected intradermally into one side of a 5 cm×5 cm square of porcine skin. […] The samples were incubated at RT for 2 h (while we were getting trained) and then imaged. The samples were incubated for an additional 2 h at 37° C. and imaged again. 2 h samples had different exposures (we were still learning the system). The 4 h samples were all taken at the same exposure. The size of the fluorescing area for each sample and time point was estimated by drawing a shape around the area manually using ImageJ™

[12] = system: Caco-2 monolayers; conditions: for enhancement of 4 kDa FITC-dextran transport: various time points
Description: Before the start of the experiment, the medium in the transwells was replaced with DMEM devoid of phenol red, FBS and P/S in both the apical (200 μL) and basolateral side (600 μL) and the cells were incubated for 30 minutes. […] This was repeated at 1, 2, 3, 4 and 5 h. During the study, the transwell plates were placed inside an incubator at 37° C., 5% CO2 on a shaker rotating at 100 rpm and only taken out to remove aliquots at each time point. After the end of study at 5 h, fluorescence in the aliquots with FTIC-dextran concentrations were measured using a plate reader (BioTek Synergy NEO HTS™ microplate reader (Winooski, Vt., USA) at 485/530, 495/520 and 468/568 nm excitation/emission wavelengths, respectively. Calibration solutions for each test article were prepared and analyzed using fluorescence readings for FITC-dextran which was used to plot of basolateral chamber concentration vs time plots.

[13] = system: Caco-2 cells; assay: GFP plasmid transfection of Caco-2 cells; assay type: cell-based, human; conditions: Caco-2, CAGE in lieu of lipofectamine, P3000 0.09%
Description: Caco-2 cells were seeded at 80% confluency in either 96-well half area or 24-well tissue culture treated plates a day prior to adding transfection reagents. For lipofectamine transfection studies, Lipofectamine 3000 reagent (final concs. 0.07% or 0.13%) was prepared in Opti-Mem Medium and mixed. A master mix of plasmid DNA was prepared separately by diluting the GFP plasmid (50 ng/well for 96-well half area plate or 250 ng/well for 24-well plate) in Opti-Mem Medium with P3000 enhancer reagent (final conc. 0.09% v/v). The master mix of plasmid DNA was added to tubes of the diluted lipofectamine 3000 reagent at a 1:1 ratio. The mixture was allowed to incubate for 20 minutes at room temperature to allow for the plasmid to become incorporated into the cationic lipofectamine. The DNA-lipid complex mixture was then added directly to cells in complete cell culture media at final concs. of 0.07% or 0.13%. Total volume of 96-well half area plate was 100 uL and for the 24-well plate 500 uL. This transfection mixture was removed after 3 days of incubation, washed with DPBS, and replaced with complete DMEM cell culture media.
If P3000 enhancer reagent was used, the final conc. was maintained at the same 0.09%. The transfection mixtures were removed after 1 day or 3 days, washed with DPBS, and replaced with complete DMEM cell culture media.

[14] = system: non-diabetic male Wistar rats; assay: In vivo bioactivity of insulin isolated from CAGE after storage; set-up: species or system rat; conditions: for blood glucose, % of initial level: 1 U/kg subcutaneous
Excerpt: Prior to insulin injections, rats were fasted overnight but given free access to water and fasting continued throughout the study to eliminate variability in blood glucose due to food consumption. The results were plotted as % change in blood glucose compared to initial level vs time.

[15] = in vivo; cited from earlier work

CC[C@@]1(O)C(=O)OCc2c1cc1n(c2=O)Cc2cc3ccccc3nc2-1 [Camptothecin]
solubility [1]: 54 mg/mL (≈ 155 mM) | effect on 4T1 cells [2]: just as effective as those solubilized in DMSO

C[N+](C)(C)CCO [Choline]
oral LD50 ([3]; oral): 3,400 mg/kg

CC(=O)O[C@H]1C(=O)[C@@]2(C)[C@H]([C@H](OC(=O)c3ccccc3)[C@]3(O)C[C@H](OC(=O)[C@H](O)[C@@H](NC(=O)c4ccccc4)c4ccccc4)C(C)=C1C3(C)C)[C@]1(OC(C)=O)CO[C@@H]1C[C@@H]2O [Paclitaxel]
solubility [4]: 200 mg/mL (≈ 234 mM) | effect on 4T1 cells [2]: just as effective as those solubilized in DMSO

CC(C)=CCC/C(C)=C/C(=O)O [geranic acid]
oral LD50 ([3]; rat, in vivo, po): 3,700 mg/kg

CCCCCCCCCC(=O)[O-].[Na+] [sodium caprate, reference compound]
tight junction integrity (TEER), % of initial levels ([5]; 10 mM sodium caprate, end of study at 24 h): 36%

Choline And GEranate [CAGE]
decrease in blood glucose of control groups, % of initial level [6]: about 25% | decrease in blood glucose of formulation controls [7]: about 25% | enhancement of Lucifer yellow transport ([8]; 10 mM CAGE): ~2 fold | enhancement of Lucifer yellow transport ([8]; 50 mM CAGE, various time points): 7-10 fold | TEER drop ([5]; 10 mM CAGE, 1 h): 29% | TEER decrease ([5]; 25 mM CAGE): 40-50% and ~40% | TEER decrease ([5]; 50 mM CAGE): 40-50% and ~50% | TEER recovery, % of initial level ([5]; 50 mM CAGE, 24 h): 58% | enhancement of FITC-insulin transport vs no CAGE ([9]; 10 mM CAGE (Example 9)): 1.5-2 fold | enhancement of insulin transport compared to insulin in saline ([9]; 10 mM CAGE, Caco-2, 5 h study): 3-4 fold | higher transport of insulin compared to insulin-saline treated cells ([9]; 10 mM CAGE, all time points over 5 h): at least 3 times | enhancement of FITC-insulin transport vs no CAGE ([9]; 25 mM CAGE): 1.5-2 fold | enhancement of FITC-insulin transport vs no CAGE ([9]; 50 mM CAGE, all time points): > 10 fold | IC50 [10]: 10 mM | area increase between 2 h and 4 h [11]: about 2 × | enhancement of 4 kDa FITC-dextran transport ([12]; 25 mM CAGE): 2-6 fold | enhancement of 4 kDa FITC-dextran transport ([12]; 50 mM CAGE): 6-13 fold | enhancement of 4 kDa FITC-dextran transport reached ([12]; concentration-dependent, highest): 13 fold | GFP plasmid transfection [13]: can deliver DNA into cells

insulin isolated from CAGE: insulin stored in CAGE, isolated by centrifugation and washing, re-suspended in sterile saline
bioactivity after storage ([14]; stored at 4° C. with CAGE, 4 months): did not show any loss in bioactivity; also recorded: retained its bioactivity | blood glucose, % of initial level ([14]; stored in CAGE at RT for 3 months, 1 h): 61.57±2.38% and 62±2% | blood glucose, % of initial level ([14]; stored in CAGE at RT for 3 months, 2 h): 61.98±3.19% and 62±3% | drop in blood glucose ([14]; stored in CAGE at RT for 3 months, 1 and 2 h after injection): 38%

orally administered insulin solution: literature comparator of Ansari et al.
oral bioavailability [15]: 1.7%
